# Measured values as given in EP0486921A1, “N-acetyl-L-cysteine magnesium salt and pharmaceutical compositions containing it” (ZAMBON GROUP S.p.A., priority 1990, dated 1992).
# Structures can show the parent of a compound that is named as a salt.
# How the values were obtained:
# predisposed subjects = conditions: the patent says tested doses were much lower than therapeutically useful doses; cited from earlier work
# anesthetized guinea pigs = conditions: guinea pig, in vivo
# Method: The experiments were carried out according to the Konzett and Rössler technique [Arch. Exp. Patol. Pharmakol., 195, 71, (1940)] in anesthetized guinea pigs, where the potential increase in total airway resistance induced by the tested compounds was registered as a change in air overflow.
# Male guinea pigs (500-600 g body weight) were anesthetized with ethylurethane (1.25 g/kg/i.p.) and the anesthesia was maintained by additional doses of ethylurethane given by intravenous route.
# A catheter was inserted into the jugular vein for the administration of histamine.
# The guinea pigs were subjected to forced ventilation at constant volume and at 72 breaths/minute.
# Basal overflow value was set up to 8 cm H20.
# Equimolecular doses of N-acetyl-L-cysteine in the form of free acid, lysine salt, calcium salt and magnesium salt [(NAC)2Mg] were administered as a micronized powder in trachea by forced insufflation.
# The bronchoconstrictive effect was evaluated as the equivalent dose of histamine causing the same change in air overflow.
# In control experiments the effect of forced insufflation of lactose was evaluated.
# Solubility in water = assay type: physicochemical
# Description: solubility in water: about 50%
# pH of aqueous solution = assay type: physicochemical; conditions: 1 % aqueous solution
# Description: pH (1 % aqueous solution) = 5.35
Structure (SMILES),induction of bronchospasm (predisposed subjects),Histamine dose X-±S.E. (dose of hystamine causing a bronchospasm equivalent to the change in air overflow) (anesthetized guinea pigs),bronchoconstrictive effect compared with N-acetyl-L-cysteine (anesthetized guinea pigs),solubility (Solubility in water) [mg/mL],pH (pH of aqueous solution)
CC(=O)N[C@@H](CS)C(=O)O [NAC lysine salt],does not induce bronchospasm,4.53±0.40 µg/kg/i.v.,–,–,–
"CC(=O)N[C@@H](CS)C(=O)O [NAC, N-acetyl-L-cysteine]",–,5.81±0.93 µg/kg/i.v.,–,–,–
CC(=O)N[C@@H](CS)C(=O)O [NAC calcium salt],–,7.03±1.48 µg/kg/i.v.,not significantly different,–,–
"CC(=O)N[C@@H](CS)C(=O)O [(NAC)2Mg, N-acetyl-L-cysteine magnesium salt]",–,3.96±0.28 ^(**) µg/kg/i.v.,significantly lower,~500,5.35
